# According to ChEMBL document CHEMBL3988442, “University of Dundee, Small-Polar-MMV Screening Library” (2021):
# Key:
# [1] = microbe, parasite or virus in culture; conditions: Mycobacterium tuberculosis, 96 h, read-out: pIC50 (converted)
# [2] = microbe, parasite or virus in culture; conditions: Mycobacterium tuberculosis, 72 h, read-out: pIC50 (converted)
SMILES,IC50 [1] [µM],IC50 [2] [µM]
CCc1nc(C2CCCN(C(=O)c3ccccc3Cl)C2)no1 (stereo not drawn),> 50.1,23.9
CC(=O)Nc1nc(COc2ccc(C)cn2)cs1,244,237
CC(=O)c1c(C)[nH]c(C(=O)OCC(=O)N(C)C)c1C,286,279
CN(C)S(=O)(=O)N1CCCC1COc1ccccc1 (stereo not drawn),271,360
NS(=O)(=O)N1CCN(CC=Cc2ccc(F)cc2)CC1,> 501,233
FC(F)Oc1ccccc1CN1CCCC(c2nccn2CC2CC2)C1 (stereo not drawn),> 50.1,> 50.1
Cc1ccc(OCC(=O)Nc2nnn(C)n2)cc1,> 501,274
CN(C)S(=O)(=O)c1ccc(F)c(NC(=O)COCC2CC2)c1,> 50.1,10.3
Nc1ccc(CNc2nc(C3CC3)ns2)cn1,> 501,> 501
Cn1cccc1C(=O)N1CCN2C[C@H](Oc3cccnc3)C[C@H]2C1,> 50.1,> 50.1
CC(C)c1ccc(CN2C(=O)C3(CCNCC3)Nc3ccccc32)cc1,22.3,32
CN(C)C(=O)c1csc(-c2ccccc2)n1,> 501,> 501
CC(Oc1ccc2c(c1)OCO2)C(=O)NC1CC1 (stereo not drawn),> 501,> 501
CCc1noc(Cn2cnc3ccccc3c2=O)n1,> 501,> 501
Cc1nccn1C1CCCN(C(=O)c2ccc(N3CCCC3)nn2)C1 (stereo not drawn),> 50.1,> 50.1
CCc1cn[nH]c1C1CCN(c2cc(C)c3cccc(OC)c3n2)CC1,> 50.1,22.2
Brc1cccc2c1CNCCO2,> 501,213
CCc1nc(CN(C)Cc2ncc(-c3cccs3)o2)cs1,31.4,31.1
OCCCn1nnc(-c2ccccc2)n1,120,158
Cc1ccc2c(c1)nc(CN)n2C,348,231
Cc1cn(Cc2nc(CC(C)C)nn2-c2ccccn2)c(=O)[nH]c1=O,> 50.1,> 50.1
Cc1nc(CNC(=O)CC2=CCCCC2)no1,> 501,> 501
CC(C)N(CCOc1cccc(F)c1)CC(N)=O,199,210
CCCNC(=O)CNc1cc(F)c(OC)c(F)c1,326,166
O=C(c1cc(C2CC2)on1)N1CCCN(C2CC2)CC1,> 501,> 501
CN1CCN(C(=O)c2cc3ccccc3o2)CC1,203,207

SMILES,IC50 [1] [µM],IC50 [2] [µM]
Cc1nc(CN2CCCC(CCc3ccccc3C(F)(F)F)C2)no1 (stereo not drawn),26.2,28.7
CCS(=O)(=O)c1ccc(CNc2ncccc2Cl)cc1,> 501,242
COC(=O)c1csc(NC(=O)CCn2cccn2)c1,> 501,303
CNC(=O)NC(=O)C(C)Nc1cccc(C)c1 (stereo not drawn),190,201
COc1ccc(Nc2ncccc2S(N)(=O)=O)cc1,> 501,> 501
CCNCC(O)COc1ccc(C)cc1OC (stereo not drawn),10.5,218
COc1ccc(CNC(=O)CNC2CCCSC2)cc1 (stereo not drawn),37.4,> 501
Cc1ncc(Cn2cc(F)ccc2=O)s1,> 501,> 501
CC(C)CCC(C)NC(=O)Nc1ccccn1 (stereo not drawn),5.47,13.6
CC(CN1CCOCC1)NC(=O)c1csc(Br)c1 (stereo not drawn),205,102
Fc1cccc(Cl)c1CNCCOc1ccccn1,> 50.1,> 50.1
CC(C)c1cccc(S(=O)(=O)NCCCN)c1,> 501,195
CN(C)c1ccc(CNC(=O)C2CCCO2)cc1 (stereo not drawn),197,219
CCN(C)C(=O)Nc1ccc(C(=O)OC)c(F)c1,> 501,> 501
O=C(NCc1cccnc1)C1COc2ccccc2O1 (stereo not drawn),> 501,> 501
CCOc1ccc(N2CCCN=C2NC(=O)c2ccc(Cl)cc2)cc1,> 50.1,> 50.1
COC(=O)c1ccc(C(=O)NCc2ccc(Br)cc2)cn1,25.6,24.8
Cc1nc(-c2cccc(C(=O)O)c2)cc(C2CCN(C(C)C)C2)n1 (stereo not drawn),> 50.1,> 50.1
CN(CC(=O)Nc1sccc1C(N)=O)Cc1cccs1,> 501,117
O=c1c2sccc2nc2n1CCN(Cc1cc(F)ccc1F)CC2,> 50.1,25
CC1CCN(C(=O)C(C)Oc2ccc3c(c2)OCO3)CC1 (stereo not drawn),38.9,30.1
Cc1ccc(C(N)CN2CCOCC2)cc1 (stereo not drawn),> 501,448
CNS(=O)(=O)c1ccc(NCc2ccco2)cc1OC,245,437
O=C(NCc1cccs1)c1cnccn1,80.5,33.9
O=C(CNC1CC1)NCCc1ccc(F)cc1,63.6,31.5
CCOc1ccccc1NC(=O)CSc1c[nH]nn1,195,> 501

SMILES,IC50 [1] [µM],IC50 [2] [µM]
O=C(CCN1CCCCC1)c1ccc2c(c1)OCO2,> 501,> 501
Cc1cnc(NC(C)Cc2cccnc2)nc1N(C)C (stereo not drawn),> 50.1,> 50.1
CN(c1ccc(F)cc1)S(=O)(=O)N1CCCCC1,267,204
Cc1cc(N2CCC2c2ccccc2)n2ncnc2n1 (stereo not drawn),245,162
Clc1ccc(OCCc2cc(C3CCN(c4ncccn4)C3)n[nH]2)cc1 (stereo not drawn),26.1,40
Cc1cnc(NC(=O)c2cccc(CN(C)Cc3ccno3)c2)s1,37.3,36.1
CC1=NOC(C(=O)NCCc2nc3c(s2)CCCC3)C1 (stereo not drawn),286,169
O=C1NC(=O)c2c(O)cccc21,254,196
CCCNC(=O)c1cc(C(C)C)on1,44.3,9.31
O=C(NCc1cccs1)c1cnsn1,17.4,3.61
OC(Cn1nnc(-c2ccsc2)n1)CC(F)(F)F (stereo not drawn),39.2,56.5
CS(=O)(=O)NC[C@H]1Cn2c(-c3ccc(Cl)cc3)cnc2CO1,> 50.1,> 50.1
CCC(C(=O)N1CCC(N)CC1)c1ccccc1 (stereo not drawn),> 501,118
Cc1ccc(N2N=C(C(N)=O)S(=O)(=O)c3cccnc32)cc1,36,14.5
CSc1c(F)cc(NC(=O)NCCO)cc1F,> 501,> 501
CC(=O)NCc1ccc(C(=O)CSc2ccccn2)s1,> 501,> 501
Cc1cc(C)c(CN2CCOC(CN)C2)cc1C (stereo not drawn),259,183
Cc1nc(C2CCCN2Cc2cc(Cl)c3c(c2)OCCO3)no1 (stereo not drawn),15.9,22.3
Cc1nc(N(C)C/C=C/c2ccccc2)c2cnn(C)c2n1,> 50.1,> 50.1
NCCc1nc(-c2ccccn2)cs1,1.16,2.67
COc1cccc(CNc2cncc(SC)n2)n1,176,139
CCNc1ncc(C(=O)N2CCCCC2)s1,> 501,377
CCc1c(C(=O)NCC(=O)OCC2CC2)cnn1-c1ccc(C)cc1,18.9,45.9
CS(=O)(=O)N1CCC(COCc2ccccc2)C1 (stereo not drawn),165,301
O=C(Cn1ccc(C(F)(F)F)n1)Nc1ccccn1,> 501,224
c1cc(-c2ccn(CCN3CCCC3)n2)cc(-c2nccs2)c1,27.4,43.6

SMILES,IC50 [1] [µM],IC50 [2] [µM]
Cc1ncsc1CCCNC(=O)c1cnccn1,> 501,> 501
c1snnc1CNCC1COC2(CCCCC2)O1 (stereo not drawn),268,> 501
O=S(=O)(CCNc1ccccn1)NCC1CCC1,213,307
CSc1cc(NC(=O)NCCc2ccccn2)ccn1,438,411
CC(C)Oc1ccc(CN)cc1,> 501,284
CN(C)S(=O)(=O)NCCNc1cccc(Br)c1,208,154
Cc1nn(C2CCCC2)c2nc(C(C)(C)CN3CCN(C)CC3)[nH]c12,> 50.1,> 50.1
OCCOCCSc1n[nH]c(-c2cc(F)cc(F)c2)n1,> 501,> 501
Cc1nc(-c2cccc(N3CCC(N4CCCC4)CC3)c2)cs1,24.2,> 50.1
NC(=O)NC(=O)CCN(Cc1ccccc1)CC1CCOCC1,35.7,28.7
O=C(CCC(=O)N1CCC(Oc2ncccc2Br)CC1)c1ccccc1,45.4,34.6
COCc1ccc(C(=O)NCc2cccc(F)c2)o1,35.8,59.4
Clc1ccc(COCC2CCN(Cc3ccccn3)CC2)cc1,26.8,26.2
C[C@@H](CO)Nc1ncc(Cl)cc1Br,> 501,291
O=C(CCN1CCCC1)N1CCc2ccccc21,> 501,391
CC(C)Nc1nc(N2CCCC2)nc2c1CN(C(C)C)CC2,15.8,26.5
CCNC1=NN=C(c2ccc3c(c2)OCCCO3)CS1,> 501,274
CC(C)NC(=O)NCC1(N2CCOCC2)CCSC1 (stereo not drawn),> 501,> 501
CCN1CC(c2nc3ccccc3[nH]2)CC1=O (stereo not drawn),260,250
CCCc1ccc2oc(C(=O)N3CCN(CCOC)CC3)c(C)c2c1,4.11,4.94
Cc1cc(S(=O)(=O)N2CCCC2CN)sc1C (stereo not drawn),> 501,141
CCCOc1cc(CNC(=O)c2nccn2C)ccn1,201,248
O=S(=O)(NCCNc1ccc(-n2cccc2)nn1)c1cccs1,13.4,14
CC(C)Cc1cc(C(=O)NCC(O)C(F)(F)F)[nH]n1 (stereo not drawn),160,183
CCc1cc(C)c(C(=O)Nc2ccc(C(N)=O)nc2)o1,69.6,56.5
CCOc1nn(CC)cc1-c1nnc(SCc2ccccn2)n1C,> 50.1,25.4
